What is called IC50 is the concentration that gives 50% inhibition.

The text below walks through data of article PMC5576918, “Small molecule inhibition of apicomplexan FtsH1 disrupts plastid biogenesis in human pathogens” (eLife, 2017).

The test system of experiment [1] is P. falciparum. The experiment in a line: microbe, parasite or virus in culture. Particulars: Plasmodium falciparum, Erythrocyte, 48 h, read-out: 48h. The arrangement: species or system P. falciparum asexual blood stages in human erythrocytes; Blood-stage parasite growth inhibition over one lytic cycle, YOYO-1 parasitemia by flow cytometry. Here is the method:
(§1) For P. falciparum EC50 calculations, growth assays were performed in 96 well plates containing serial dilution of drugs in triplicate. Media was supplemented with 200 uM IPP as indicated. Growth was initiated with ring-stage parasites (synchronized with 5% sorbitol treatment) at 1% parasitemia and 1% hematocrit. […] Parasitized cells were stained with 50 nM YOYO-1 (Invitrogen) overnight at room temperature and the parasitemia was determined by flow cytometry (BD Accuri C6 Sampler). Data were analyzed by BD Accuri C6 Sampler software. […] A single natural product antibiotic, actinonin, matched our criteria (Figure 1a) ([Gordon et al., 1962]). […] Because isoprenoid precursor biosynthesis is the only essential function of the apicoplast in blood-stage P. falciparum, any disruption of the apicoplast, including complete loss of the organelle, can be rescued by addition of the isoprenoid precursor, isopentenyl pyrophosphate (IPP), in the growth media ([Yeh and DeRisi, 2011]). […] Compared to chloramphenicol, actinonin clearly had more rapid antimalarial activity.

Experiment [2] deals with P. falciparum. Description: microbe, parasite or virus in culture. The arrangement: species or system P. falciparum asexual blood stages in human erythrocytes; Blood-stage parasite growth inhibition over two lytic cycles, YOYO-1 parasitemia by flow cytometry. The conditions noted are these: Plasmodium falciparum, Erythrocyte, 96 h, read-out: 96h. Here is the method: as §1

The next experiment addresses T1, PfFtsH1 (Plasmodium falciparum, UniProt Q8I526).
T1 construct: gene PF3D7_1239700; His6-SUMO-PfFtsH1_91-612-GST (AAA+ ATPase and peptidase domains, lacking transmembrane domain)
Description: ATP-dependent FITC-casein proteolysis by purified recombinant PfFtsH1, fluorescence. It is filed as biochemical.

Where two headings read alike, the source gives them in different places. A value given as a limit tells only on which side of the number the result lay.

T1 sequence (Q8I526 entry or part of it): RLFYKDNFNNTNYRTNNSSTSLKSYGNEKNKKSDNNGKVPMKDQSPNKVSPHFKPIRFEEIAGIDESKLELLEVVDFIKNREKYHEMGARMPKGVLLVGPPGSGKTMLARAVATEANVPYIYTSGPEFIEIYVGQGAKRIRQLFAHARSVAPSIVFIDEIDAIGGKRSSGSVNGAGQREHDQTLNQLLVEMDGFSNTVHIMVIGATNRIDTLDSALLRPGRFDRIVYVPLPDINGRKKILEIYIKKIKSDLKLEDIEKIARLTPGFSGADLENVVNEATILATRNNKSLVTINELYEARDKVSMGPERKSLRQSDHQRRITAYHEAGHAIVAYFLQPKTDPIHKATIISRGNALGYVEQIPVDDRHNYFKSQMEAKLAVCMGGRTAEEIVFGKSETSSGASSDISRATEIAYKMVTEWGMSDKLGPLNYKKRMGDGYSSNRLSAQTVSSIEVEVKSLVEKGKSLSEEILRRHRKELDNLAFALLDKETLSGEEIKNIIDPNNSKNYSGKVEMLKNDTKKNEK

On to `Nc1ccn([C@@H]2O[C@H](CO)[C@@H](O)[C@H]2F)c(=O)n1` [2'deoxy-2-F-cytidine], for which the EC50 in the experiment with P. falciparum [1] and with P. falciparum [2] was more than 200 µM in each case.
Regarding `CCCCC[C@H](CC(N)=O)C(=O)N[C@H](C(=O)N1CCC[C@H]1CO)C(C)C` [actinamide], at PfFtsH1, the IC50 is 7.3 µM.
Turning to `CCCCC[C@H](CC(=O)NO)C(=O)N[C@H](C(=O)N1CCC[C@H]1CO)C(C)C` [actinonin], the EC50 was determined as 3.2 µM in the experiment on P. falciparum [1] and 2.7 µM with P. falciparum [2].
Consider `O=C(O)c1cn(C2CC2)c2cc(N3CCNCC3)c(F)cc2c1=O` [ciprofloxacin], for which the EC50 with P. falciparum [1] amounted to 24 µM; in the experiment with P. falciparum [2], 6 µM.
As for `CCn1cc(C(=O)O)c(=O)c2cc(F)c(N3CCNCC3)nc21` [enoxacin], the EC50 in the experiment on P. falciparum [1] is more than 50 µM; in the experiment on P. falciparum [2] it was 5.7 µM.
As for `C[C@H]1COc2c(N3CCN(C)CC3)c(F)cc3c(=O)c(C(=O)O)cn1c23` [levofloxacin], the EC50 in the experiment on P. falciparum [1] is 70 µM; in the experiment on P. falciparum [2], 16 µM.
`CC(C)C(=O)OC[C@H]1O[C@@H](n2ccc(N)nc2=O)[C@](C)(F)[C@@H]1OC(=O)C(C)C` [mericitabine]: the EC50 in the experiment on P. falciparum [1] and in the experiment on P. falciparum [2] was more than 200 µM each time.
As for `CCn1cc(C(=O)O)c(=O)c2cc(F)c(N3CCNCC3)cc21` [norfloxacin], the EC50 in the experiment with P. falciparum [1] came to 40 µM; with P. falciparum [2] it was 10 µM.
In the case of `CO[C@@H]1[C@@H](OC(N)=O)[C@@H](O)[C@H](Oc2ccc3c(O)c(NC(=O)c4ccc(O)c(CC=C(C)C)c4)c(=O)oc3c2C)OC1(C)C` [novobiocin], the EC50 with P. falciparum [1] stood at 40 µM; in the experiment with P. falciparum [2], 36 µM.
For the molecule `CO[C@H]1/C=C/O[C@@]2(C)Oc3c(C)c(O)c4c(O)c(c(/C=N/N5CCN(C)CC5)c(O)c4c3C2=O)NC(=O)/C(C)=C\C=C\[C@H](C)[C@H](O)[C@@H](C)[C@@H](O)[C@@H](C)[C@H](OC(C)=O)[C@@H]1C` [rifampin], the EC50 with P. falciparum [1] worked out at 1 µM; in the experiment on P. falciparum [2] it was 2 µM.
